This note sets out measurements from US6531493B1, “3-cyclopropylmethoxy-4-difluoromethoxy-N-(3,5-dichloropyrid-4-yl)benzamide in the treatment of multiple sclerosis” (Altana Pharma AG, priority 1999, dated 2003).

The assay relates to Experimental autoimmune encephalomyelitis (EAE) in female SJL mice. The assay is described as follows: Experimental autoimmune encephalomyelitis (EAE) induced with PLP139-151, daily clinical scoring. To be noted: for Number of sick animals: 2 × 5 mg/kg p.o., 2× daily up to day 21, n=10. The format is in vivo.
Setting [1] is: oral administration, compared with untreated controls.

Consider `O=C(Nc1c(Cl)cncc1Cl)c1ccc(OC(F)F)c(OCC2CC2)c1` [substance A, 3-cyclopropylmethoxy-4-difluoromethoxy-N-(3,5-dichloropyrid-4-yl)benzamide], for which the “Number of sick animals” value is, setting by setting: (day 2 after EAE induction) 0; (day 4 after EAE induction) 0; (day 6 after EAE induction) 0; (day 8 after EAE induction) 0; (day 10 after EAE induction) 0; (day 12 after EAE induction) 0. For the same compound, the “Number of sick animals” value turned out to be 1 (day 14 after EAE induction); 3 (day 16 after EAE induction); 3 (day 18 after EAE induction); 3 (day 20 after EAE induction); 3 (day 22 after EAE induction); 4 (day 24 after EAE induction). Under “day 26 after EAE induction”, the “Number of sick animals” value is on record as 3. For the same compound, for the setting “of the 10 treated animals, monitoring period up to the 26th day after EAE induction”, the “Number of experimental animals with no MS-analogous symptomatology at all” value was 6. For the same compound, the “Effect on onset of the MS-analogous symptomatology” value under setting [1] is “delay in the onset of the MS-analogous symptomatology”. Under setting [1], the “Effect on the number of animals which suffer from the experimental encephalitis” value was “marked decrease in the number of animals”.
